# “And” between values parts separate entries of the source, which are not always exact repeats. Equal entries are not always repeated. The source made the active and inactive calls.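 How the source made its calls: active means EC50 at or below a set limit, with no effect in the paired counter-screen assay; inactive means the rest.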
# Target: Aedes aegypti neuropeptide Y-like receptor 7 (NPYLR7)
# Test: agonists of mosquito NPYLR7 receptor, confirmation, cell-based, Aedes aegypti, hit validation, mosquito biting behavior (AID 1259427);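 further: potency of agonists that activate the receptor and raise the calcium signal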
# Settings: HEK293T NPYLR7/Galpha15/GCaMP6s, calcium fluorescence
row,Compound,EC50
1,N#C/C(=C\c1ccc(O)c(O)c1)C(=O)NCc1ccccc1,> 20 µM (inactive)
2,CC1(C)CC(c2[nH]cnc2-c2ccccc2)CCO1 (configuration not stated),> 20 µM (inactive)
3,Cc1cccc(N2C(=O)NC(=O)/C(=C/c3cn(C)c4ccccc34)C2=O)c1,> 20 µM (inactive)
4,CCNC(=O)[C@H]1O[C@@H](n2cnc3c(N)ncnc32)C(O)[C@H]1O (some centres not stated),inactive
5,CCN1CCN(C(=O)c2ccc(Cn3ccsc3=NC(=O)c3ccc(OC)c(OC)c3)o2)CC1,14.3 µM
6,CC(C)Nc1ccc(NS(=O)(=O)NCc2ccccc2)cn1,> 20 µM (inactive)
7,N#CC(C#N)=C1C=C2C=C(N3CCCCCC3)CCC2CC1 (configuration not stated),< 0.039 µM (inactive)
8,CC(=NNc1ncnc2sc(C)c(C)c12)c1ccccn1,inactive
9,CCOc1cc(/C=C2/Oc3cc(O)ccc3C2=O)cc(Cl)c1OCC(=O)N(C)C,16.6 µM
10,CCOc1cccc(C=C2Oc3cc(O)ccc3C2=O)c1OC,> 20 µM (inactive)
11,O=C1/C(=C/c2cc3ccccc3o2)Oc2cc(O)ccc21,> 20 µM (inactive)
12,COc1ccc(NC[C@@H]2C=C(C)[C@H](Cc3nnc(C)o3)C[C@H]2C(C)C)cn1,> 20 µM (inactive)
13,CCCc1nn2c(N)c(C=C3C=C(Cl)C(=O)C(Cl)=C3)c(=O)nc2s1,> 20 µM (inactive)
14,N#CC(C#N)=C1C=C2C=C(N3CCCC3)CCC2CC1 (configuration not stated),< 0.039 µM (inactive)
15,O=C1/C(=C/c2cc3ccccc3o2)Oc2c1ccc(O)c2CN1CCN(CCO)CC1,inactive
16,CC1CN(c2ccc(/C=C(\C#N)c3nc4ccccc4[nH]3)o2)CC(C)O1 (configuration not stated),> 20 µM (inactive)
17,O=[N+]([O-])c1c[n+]([O-])n(-c2cccc(Cl)c2)n1,> 20 µM (inactive)
18,CC(=O)Oc1ccc(Cn2c(C)c(C(=O)NCc3ccc(C#N)cc3)sc2=O)cc1,> 20 µM (inactive)
19,CC1C(=O)N(c2cccc(F)c2)CCN1C(=O)C1CC1 (configuration not stated),> 20 µM (inactive)
20,O=C(O)c1csc(CSc2nnc(-c3ccncc3)n2-c2cccc(C(F)(F)F)c2)n1,> 20 µM (inactive)
21,O=C1C(=Cc2ccc(OC(F)F)cc2OC(F)F)Oc2cc(O)ccc21,> 20 µM (inactive)
22,COc1ccc(CCN2COc3ccc4c(c3C2)O/C(=C\c2cccnc2)C4=O)cc1,> 20 µM (inactive)
23,O=C(O)CCn1c(O)c(C=C2C=Nc3ccccc32)sc1=S,> 20 µM (inactive)
24,C#CCN1C(=O)SC(=Cc2ccc(N3CCCCC3)o2)C1=O,inactive
25,CNC(=O)NC(=O)CCN1CC(c2ccccc2Cl)c2c([nH]c3ccccc23)C1C (configuration not stated),> 20 µM (inactive)

row,Compound,EC50
1,COc1ccc(-n2ccnc2-c2ccc(C#CC(C)(C)O)cc2)cn1,> 20 µM (inactive)
2,N#CC1C(=N)Oc2cc(O)ccc2C1c1ccccc1I (configuration not stated),inactive
3,OCCN(CCO)c1nc(N2CCCCC2)c2nc(N(CCO)CCO)nc(N3CCCCC3)c2n1,inactive
4,Cc1ccc2c(c1)CCCN2CC(=O)N(CCC(N)=O)c1ccccc1,> 20 µM (inactive)
5,CCc1nn(C(C)C(=O)NC(C)CCc2ccco2)c(=O)c2cc3occc3n12 (configuration not stated),inactive
6,Cc1cc(C)c2cc3c(cc2n1)CCN3CC(O)CO (configuration not stated),inactive
7,O=C(Nc1cccc(-c2nnco2)c1)C1CCCCC1,> 20 µM (inactive)
8,O=C(c1cnn(-c2ccccc2)n1)N1CCCC(COCc2ccccc2)C1 (configuration not stated),inactive
9,CSc1ccc(C2CC(c3cccs3)=Nc3ncnn32)cc1 (configuration not stated),inactive
10,COc1ccc(-c2cccc(-c3ccc(NC(=O)c4oc5ccccc5c4C)cc3)n2)cc1,> 20 µM (inactive)
11,Cc1oc(-c2cccc(NC(=O)CC(C)C)c2)nc1CNC(=O)Cc1cc(F)cc(F)c1,> 20 µM (inactive)
12,O=C1Nc2ccccc2C1C=NN1CCOCC1 (configuration not stated),> 20 µM (inactive)
13,CC(C)C(=O)Nc1sc2c(c1-c1nc3ccccc3s1)CCN(C)C2,> 20 µM (inactive)
14,COC(=O)c1cnc(/C=C/c2cc(C)c(O)c(C)c2)s1,> 20 µM (inactive)
15,Cc1cc2nc3c(=O)[nH]c(=O)nc-3n(CC(O)C(O)C(O)CO)c2cc1C (configuration not stated),< 0.039 µM (inactive)
16,COc1ccccc1CCNC(=O)c1ccc(Cn2c(C)nc3ccccc32)o1,> 20 µM (inactive)
17,COc1cc(/C=C2\SC(=S)N(C(C)C(=O)O)C2=O)ccc1O (configuration not stated),inactive
18,NC(=O)CN1c2cccc3cccc(c23)S1(=O)=O,> 20 µM (inactive)
19,CCOC(=O)C1CCN(C(=O)CC(c2cccc(C(F)(F)F)c2)c2c[nH]c3c(CC)cccc23)CC1 (configuration not stated),> 20 µM (inactive)
20,CCN1/C(=C/C2=CC(=O)CC(C)(C)C2)Sc2ccccc21,inactive
21,COc1ccc(-c2cnn(CCC(N)=O)c2)c(C)c1,> 20 µM (inactive)
22,COc1ccc(OC)c(CCNc2nc3cnc(-c4cc(OC)c(OC)c(OC)c4)cc3n2C)c1,12.7 µM
23,CCN1CC=C2C(C#N)C(=N)C(C#N)(C#N)C(c3cccs3)C2C1 (configuration not stated),> 20 µM (inactive)
24,CCOC(=O)c1ccccc1-c1c2ccc(=N)cc-2oc2cc(N)ccc12,< 0.039 µM (inactive)
25,Cc1ccc(Cl)c(Oc2cc(N3CCN(C(=O)c4ccc(Cl)c(Cl)c4)CC3)ncn2)c1,> 20 µM (inactive)

row,Compound,EC50
1,CCN1CCN(Cc2c(O)cc(C)c3c2O/C(=C\c2ccco2)C3=O)CC1,> 20 µM (inactive)
2,Cc1ccc(CN(Cc2ccc(F)cc2)C(=O)CNCCN2CCOCC2)s1,> 20 µM (inactive)
3,CCCN1CCc2c(sc3c2c(NC(CC)CO)nc2nnnn23)C1 (configuration not stated),> 20 µM (inactive)
4,COc1ccc(C2=NN(C(=O)CN3CCOCC3)C(c3nc4ccccc4[nH]3)C2)cc1 (configuration not stated),> 20 µM (inactive)
5,CC(C)NC[C@H](O)c1ccc(O)c(O)c1,< 39 nM (inactive) and > 20 µM (inactive)
6,C=CCN1C(=O)/C(=C\c2ccc(O)cc2)SC1=S,> 20 µM (inactive)
7,N#C/C(=C/c1ccc(N2CCCCC2)o1)c1cccc(F)c1,> 20 µM (inactive)
8,CCCc1[nH]n(-c2ccc(Cl)c(Cl)c2)c(=O)c1/C=C1\NC(=O)N(Cc2ccc(C)cc2)C1=O,> 20 µM (inactive)
9,CCOc1ccc(/C=C2N=C(/C=C/c3ccccc3)OC/2=O)cc1,> 20 µM (inactive)
10,Cc1cccc(Oc2nc3ccccn3c(=O)c2/C=C(\C#N)c2nc3ccccc3s2)c1,> 20 µM (inactive)
11,CC1CCCCC1OCCNC(=O)C1(c2ccc(F)cc2)CCC1 (configuration not stated),> 20 µM (inactive)
12,COC(=O)C1CCN(S(=O)(=O)c2c(F)cc(F)cc2Br)CC1,> 20 µM (inactive)
13,CCOC(=O)c1nc2ccccc2nc1N1CCN(C(=O)N2CCOCC2)CC1,> 20 µM (inactive)
14,Cc1ccc(C2=NN(C(=O)CN3CCN(C)CC3)C(c3ccccc3Cl)C2)cc1 (configuration not stated),> 20 µM (inactive)
15,CCN(CC)c1ccc(/C=C2\SC(=S)N(CC(=O)O)C2=O)c(O)c1,inactive
16,CCOC=C(C#N)c1nc(C)cs1,inactive
17,CCN(CC)c1ccc2c(-c3ccccc3C(=O)O)c3ccc(=[N+](CC)CC)cc-3oc2c1,inactive
18,Nc1nc(Cl)nc2c1ncn2[C@@H]1O[C@H](COP(=O)(O)OP(=O)(O)OP(=O)(O)O)[C@H](O)C1O (some centres not stated),< 0.039 µM (inactive)
19,CCOC(=O)N1CCN(c2ccc(/C=C(\C#N)c3nc4ccccc4n3C)o2)CC1,inactive
20,Cc1csc(-c2cc3ccc(O)c(CN4CCN(CCO)CC4)c3oc2=O)n1,< 0.039 µM (inactive)
21,COC(=O)c1cc(N)c(/C=C/c2cccs2)s1,inactive
22,Nc1nc(Cl)nc2c1ncn2[C@@H]1O[C@H](CO)[C@@H](O)[C@H]1O,inactive
23,Nc1c(S(=O)(=O)O)cc2c3c(cccc13)C(=O)N(CCO)C2=O,inactive
24,COc1ccc2c(c1)OCC(C=C(C#N)S(=O)(=O)c1ccc(Br)cc1)=C2,> 20 µM (inactive)
25,COc1ccc(CN2CCN(Cc3cccn3-c3ncccn3)CC2CCO)c(C)c1C (configuration not stated),> 20 µM (inactive)

row,Compound,EC50
1,CCOC(=O)C1CCCN(c2nc3nonc3nc2N2CCSCC2)C1 (configuration not stated),> 20 µM (inactive)
2,CCN(CC)c1ccc(/C=C2\SC(=S)N(CCS(=O)(=O)O)C2=O)cc1,inactive
3,Cc1ccc2nc(Cn3cnc4c(Cl)cc(Cl)cc4c3=O)cc(=O)n2c1,> 20 µM (inactive)
4,CCN(CC)C1=CC2=CC(=C(C#N)C#N)CCC2CC1 (configuration not stated),< 0.039 µM (inactive)
5,COc1cc(OC)cc(C(=O)N2CCN(C(C(=O)Nc3ccc(NC(C)=O)cc3)C3CCCC3)CC2)c1 (configuration not stated),> 20 µM (inactive)
6,Clc1ccc(-c2noc3c2CN(CCn2cc(Cl)cn2)CC3)cc1,> 20 µM (inactive)
7,COc1ccc(CC2c3cc(OC)c(OC)cc3CC[N+]2(C)CCC(=O)OCCCCCOC(=O)CC[N+]2(C)CCc3cc(OC)c(OC)cc3C2Cc2ccc(OC)c(OC)c2)cc1OC (configuration not stated),3.55 µM
8,Nc1ccc2c3c(cccc13)C(=O)N(c1ccccc1)C2=O,inactive
9,O=C(O)c1ccccc1-c1c2cc(Br)c(=O)cc-2oc2[c]([Hg])c(O)c(Br)cc12,< 0.039 µM (inactive)
10,Cc1ccc(Nc2nc(Nc3cccc(F)c3)nc3nccnc23)c(C)c1,> 20 µM (inactive)
11,CN1C(=S)N(C2CCCCC2)C(=O)/C1=C\c1ccc2c(c1)OCO2,> 20 µM (inactive)
12,O=C1SC(Nc2ccc(Br)cc2)C(=O)N1c1ccccc1 (configuration not stated),> 20 µM (inactive)
13,CC1(C)CC(=O)C2C(=Nc3[nH]c(=S)[nH]c(=O)c3C2c2ccc3c(c2)OCO3)C1 (configuration not stated),> 20 µM (inactive)
14,Cc1ccc(OCCNC(=O)N2CCN(S(=O)(=O)c3ccccc3Cl)CC2)c(C)c1,> 20 µM (inactive)
15,Cn1c(C(C#N)=Cc2c(F)c(F)c(F)c(F)c2F)nc2ccccc21,< 0.039 µM (inactive)
16,CN1C(=S)N(CCCN2CCOCC2)C(=O)/C1=C/c1ccc(N(C)C)cc1,> 20 µM (inactive)
17,COCCCNCc1c(-c2ccc(F)cc2)noc1N1CCOCC1,> 20 µM (inactive)
18,COc1cccc(CNC2CC2)c1OCc1nc(CO)cs1,> 20 µM (inactive)
19,CCN=c1cc2oc3cc(NCC)c(C)cc3c(-c3ccccc3C(=O)OCC)c-2cc1C,inactive
20,COc1cccc(CN2C(=O)c3cccc(N)c3C2=O)c1,> 20 µM (inactive)
21,O=c1oc2c(CN3CCN(CCO)CC3)c(O)ccc2cc1-c1nc2ccccc2s1,< 0.039 µM (inactive)
22,CCOC(=O)C1=C(O)/C(=C\c2ccc(N(C)C)cc2)SC1=Nc1ccc(OC)cc1OC,> 20 µM (inactive)

# — PubChem BioAssay AID1259427 (Fisher Drug Discovery Resource Center, 2018)
